Source: US12729377B2, “RNAi agents and compositions for inhibiting expression of angiopoietin-like 3 (ANGPTL3), and methods of use” (Arrowhead Pharmaceuticals, Inc., priority 2017, dated 2026)
In the oligonucleotide strings, read from the 5' end, every base follows the letter of its sugar. An asterisk marks phosphorothioate; unmarked linkages are phosphodiester. Other units and linkages are bracketed, terminal groups are in braces. A string of capitals states the bases alone. {NAG37} = tridentate N-acetyl-galactosamine targeting ligand, structure (NAG37)s; [invAb] = inverted abasic unit; m = 2'-O-methyl; f = 2'-fluoro

How the values were obtained:
[1] = system: ANGPTL3 protein; assay: Example 9: serum ANGPTL3 protein by ELISA in cynomolgus monkeys; assay type: in vivo, cynomolgus macaque (Macaca fascicularis); conditions: for Average ANGPTL3 Protein Normalized to Pre-Treatment: 2.0 mg/kg single SC injection day 1, cynos, n=3
Method: Additional ANGPTL3 RNAi agents were evaluated in cynomolgus monkeys. On day 1, cynomolgus macaque (Macaca fascicularis) primates (also referred to herein as “cynos”) were administered a single subcutaneous injection of 0.3 mL/kg (approximately 2-3 mL volume, depending on animal mass) containing 2.0 mg/kg of an ANGPTL3 RNAi agent, which included either AD05488, AD05743, AD05775, or AD05841, each formulated in saline. […] ANGPTL3 RNAi agents AD05488, AD05743, and AD05775 included nucleotide sequences designed to target position 304 of the ANGPTL3 gene. ANGPTL3 RNAi agent AD05841 included nucleotide sequences designed to target position 1035 of the ANGPTL3 gene.
Three (3) cynos in each group were tested (n=3). Blood samples were drawn and serum samples were analyzed on days −14 (predose), −7 (predose), 1 (pre-dose), 8, 15, 22, 29, and 35. Cynos were fasted overnight prior to each collection. ANGPTL3 protein levels in serum were measured by ELISA assay (R&D Systems), according to the manufacturer's recommendations. Triglycerides, total cholesterol, high-density lipoprotein (HDL), and low-density lipoprotein (LDL) in serum were measured on a Cobas® Integra 400 (Roche Diagnostics), according to the manufacturer's recommendations.
The ANGPTL3 protein levels, triglyceride levels, total cholesterol levels, HDL levels, and LDL levels for each animal were normalized. For normalization, the level of ANGPTL3 protein, triglyceride, HDL, and total cholesterol, respectively, for each animal at a time point, was divided by the average pre-treatment level of expression in that animal (in this case at days −14, −7, and 1) to determine the ratio of expression “normalized to pre-treatment.”

[2] = system: ANGPTL3 gene; assay: Example 10: serum HDL in mice; assay type: in vivo; conditions: 0.5 mg/kg single SC injection day 1, female C57bl/6 mice, n=3, ratio to D5W control
Method: (§1) To assess the in vivo activity of further ANGPTL3 RNAi agents that are designed to target position 304 on the ANGPTL3 gene, six- to eight-week-old female C57bl/6 mice were used. Pre-dose serum samples were taken at day −1 after a four hour fast. At day 1, each mouse was given a single subcutaneous administration of 200 μl containing 0.5 mg/kg (mpk) of an ANGPTL3 RNAi agent in D5W (dextrose in 5% water), or control (D5W) with no RNAi agent, according to the dosing groups recited in Table 47.
Each of the RNAi agents included a modified sequence and an N-acetyl-galactosamine-containing targeting ligand conjugated to the 5′ terminal end of the sense strand. (See Tables 3, 4, and 5 for modified sequences and targeting ligand structures). As noted above, each of the ANGPTL3 RNAi agents dosed in this study included nucleotide sequences designed to target the ANGPTL3 gene at position 304. The injections were performed between the skin and muscle (i.e. subcutaneous injections) into the loose skin over the neck and shoulder area. Three (3) mice in each group were tested (n=3). Serum was collected on days 8, 15, 22, 29, and for some groups on day 36 (i.e., Groups 1, 2, and 9-13 only). Mice were fasted for four hours prior to each collection. ANGPTL3 protein levels in serum were measured by ELISA assay (R&D Systems), according to the manufacturer's recommendations. Triglycerides, total cholesterol, high-density lipoprotein (HDL), and low-density lipoprotein (LDL) in serum were measured on a Cobas® Integra 400 (Roche Diagnostics), according to the manufacturer's recommendations.
(§2) The ANGPTL3 protein levels, triglyceride levels, total cholesterol levels, HDL levels, and LDL levels for each animal were normalized. For normalization, the level of ANGPTL3 protein, triglyceride, HDL, and total cholesterol, respectively, for each animal at a time point, was divided by the pre-treatment level of expression in that animal (in this case at day −1) to determine the ratio of expression “normalized to pre-treatment.” Expression at a specific time point was then normalized to the D5W control group by dividing the “normalized to pre-treatment” ratio for an individual animal by the mean “normalized to pretreatment” ratio of all mice in the D5W control group.

[3] = system: ANGPTL3 protein; assay: Example 11: dose response, serum ANGPTL3 protein by ELISA in mice; assay type: in vivo, C57bl/6 mice
Method: as §1, with “dose response” for “in vivo activity”, “of” for “of further”, “agent AD05488,” for “agents that are designed to target position 304 on the ANGPTL3 gene,”, “the respective” for “0.5”, “dose” for “(mpk)”, “53:” for “47.”
The RNAi agent tested (AD05488) included a modified sequence and an N-acetyl-galactosamine-containing targeting ligand conjugated to the 5′ terminal end of the sense strand. (See Tables 3, 4, and 5 for modified sequences and targeting ligand structures). The injections were performed between the skin and muscle (i.e. subcutaneous injections) into the loose skin over the neck and shoulder area. Four (4) mice in each group were tested (n=4). Serum was collected on days 8, 15, 22, and 29. Mice were fasted for four hours prior to each collection. ANGPTL3 protein levels in serum were measured by ELISA assay (R&D Systems), according to the manufacturer's recommendations. Triglycerides, total cholesterol, high-density lipoprotein (HDL), and low-density lipoprotein (LDL) in serum were measured on a Cobas® Integra 400 (Roche Diagnostics), according to the manufacturer's recommendations.
as §2

AD05488: RNAi agent duplex: antisense AM07235-AS, sense AM07234-SS (antisense mU*fA*mC*fUmGfAmUfCmAfAmAfUmAfUmGfUmUfGmAfG*mC; sense {NAG37}*[invAb]*mGmCmUmCmAmAmCmAfUfAfUmUmUmGmAmUmCmAmGmUmA*[invAb])
Average ANGPTL3 Protein Normalized to Pre-Treatment ([1]; Day 8): 0.232 | Average ANGPTL3 Protein Normalized to Pre-Treatment ([1]; Day 15): 0.240 | Average ANGPTL3 Protein Normalized to Pre-Treatment ([1]; Day 22): 0.239 | Average ANGPTL3 Protein Normalized to Pre-Treatment ([1]; Day 29): 0.258 | Average ANGPTL3 Protein Normalized to Pre-Treatment ([1]; Day 35): 0.332 | reduction in ANGPTL3 protein compared to pre-treatment ([1]; each of the measured time points, single 2.0 mg/kg subcutaneous, cynomolgus monkeys): reduction | Average HDL Normalized to Pre-Treatment and Control ([2]; Day 8): 0.648 | Average HDL Normalized to Pre-Treatment and Control ([2]; Day 15): 0.807 | Average HDL Normalized to Pre-Treatment and Control ([2]; Day 22): 0.733 | Average HDL Normalized to Pre-Treatment and Control ([2]; Day 29): 0.746 | Average HDL Normalized to Pre-Treatment and Control ([2]; Day 36): 0.816 | Avg ANGPTL3 Protein Normalized to Pre-Treatment and Control ([3]; 0.05 mg/kg single sc day 1, Day 8): 0.788 | Avg ANGPTL3 Protein Normalized to Pre-Treatment and Control ([3]; 0.05 mg/kg single sc day 1, Day 15): 0.929 | Avg ANGPTL3 Protein Normalized to Pre-Treatment and Control ([3]; 0.05 mg/kg single sc day 1, Day 22): 1.106 | Avg ANGPTL3 Protein Normalized to Pre-Treatment and Control ([3]; 0.05 mg/kg single sc day 1, Day 29): 0.990 | Avg ANGPTL3 Protein Normalized to Pre-Treatment and Control ([3]; 0.1 mg/kg single sc day 1, Day 8): 0.511 | Avg ANGPTL3 Protein Normalized to Pre-Treatment and Control ([3]; 0.1 mg/kg single sc day 1, Day 15): 0.757 | Avg ANGPTL3 Protein Normalized to Pre-Treatment and Control ([3]; 0.1 mg/kg single sc day 1, Day 22): 0.720 | Avg ANGPTL3 Protein Normalized to Pre-Treatment and Control ([3]; 0.1 mg/kg single sc day 1, Day 29): 0.734 | Avg ANGPTL3 Protein Normalized to Pre-Treatment and Control ([3]; 0.5 mg/kg single sc day 1, Day 8): 0.207 | Avg ANGPTL3 Protein Normalized to Pre-Treatment and Control ([3]; 0.5 mg/kg single sc day 1, Day 15): 0.261 | Avg ANGPTL3 Protein Normalized to Pre-Treatment and Control ([3]; 0.5 mg/kg single sc day 1, Day 22): 0.310 | Avg ANGPTL3 Protein Normalized to Pre-Treatment and Control ([3]; 0.5 mg/kg single sc day 1, Day 29): 0.349 | Avg ANGPTL3 Protein Normalized to Pre-Treatment and Control ([3]; 1.0 mg/kg single sc day 1, Day 8): 0.116 | Avg ANGPTL3 Protein Normalized to Pre-Treatment and Control ([3]; 1.0 mg/kg single sc day 1, Day 15): 0.141 | Avg ANGPTL3 Protein Normalized to Pre-Treatment and Control ([3]; 1.0 mg/kg single sc day 1, Day 22): 0.171 | Avg ANGPTL3 Protein Normalized to Pre-Treatment and Control ([3]; 1.0 mg/kg single sc day 1, Day 29): 0.199 | Avg ANGPTL3 Protein Normalized to Pre-Treatment and Control ([3]; 2.5 mg/kg single sc day 1, Day 8): 0.064 | Avg ANGPTL3 Protein Normalized to Pre-Treatment and Control ([3]; 2.5 mg/kg single sc day 1, Day 15): 0.047 | Avg ANGPTL3 Protein Normalized to Pre-Treatment and Control ([3]; 2.5 mg/kg single sc day 1, Day 22): 0.056 | Avg ANGPTL3 Protein Normalized to Pre-Treatment and Control ([3]; 2.5 mg/kg single sc day 1, Day 29): 0.063 | Avg ANGPTL3 Protein Normalized to Pre-Treatment and Control ([3]; 5.0 mg/kg single sc day 1, Day 8): 0.018 | Avg ANGPTL3 Protein Normalized to Pre-Treatment and Control ([3]; 5.0 mg/kg single sc day 1, Day 15): 0.019 | Avg ANGPTL3 Protein Normalized to Pre-Treatment and Control ([3]; 5.0 mg/kg single sc day 1, Day 22): 0.029 | Avg ANGPTL3 Protein Normalized to Pre-Treatment and Control ([3]; 5.0 mg/kg single sc day 1, Day 29): 0.031 | reduction in ANGPTL3 protein ([3]; dose response, single subcutaneous dose, C57bl/6 mice): reduction
